From patent publication EP0036436A1, “Methyl 11alpha,15R-dihydroxy-16,18-methano-16-methyl-9-oxoprost-13E-en-1-oate, a process for its production and composition containing it” (MILES LABORATORIES, INC., priority 1980, dated 1981) come the findings set out here.

The test system of one data set is tracheobronchial tract. The experiment in a line: irritancy to the tracheobronchial tract: 10 minute aerosol challenge in conscious cats. To be noted: for Cough / %ΔRR = percent change in respiratory rate: conscious cats, 10 minute aerosol challenge; for times less potent an irritant than PGE1: computer program of relative potencies on the data of Tables I and II, PGE1 as standard. Type of data set: in vivo. The protocol:
PGE1 and the test compounds were dissolved in absolute ethanol to give stock solutions of 10 mg/ml. These stock solutions and an ethanol vehicle were diluted using isotonic saline adjusted with phosphate buffer to pH 7.2.
Specific pathogen free cats (Category III) of either sex from the Laboratory Animals Centre were used. Conscious cats (2-4 kg) were restrained in an adjustable Perspex box with their heads protruding into a separate Perspex chamber with a seal around the neck. The respiratory pattern and rate of each cat was recorded via a Fleisch head pneumotachograph protruding into the top of the chamber. Sound was recorded by a microphone also protruding into the chamber. An aerosol of 1-8µm particle size was generated by a Monaghan 670 Ultrasonic nebulizer and passed to the cat's face via an opening in the front of the chamber. Each cat was challenged initially for 10 minutes with an aerosol of isotonic saline adjusted with phosphate buffer to pH 7.2 plus the appropriate concentration of ethanol. This control challenge was followed by a 10 minute aerosol challenge of the test compound of PGE1 in the appropriate vehicle. This 10 minute challenge period is much greater than the brief period of inhalation likely to be used in man, but it does produce a larger number of coughs and enables us to determine the potency of the analogue relative to PGE1 in producing other unwanted side effects.
Seven days were left between successive challenges to avoid the development of tolerance. Both drugs were tested in 5 cats using a wide range of concentrations of aerosol stock solutions. Each cat was observed during and up to 24 hours after the experiment for other side effects, e.g., sedation, diarrhea, and salivation.

A further data set deals with human bronchial muscle. The experiment in a line: relaxation of the human bronchial muscle relative to PGE1. Type of data set: cell-based. To be noted: for relative potency to PGE1: relaxation of human bronchial muscle, PGE1 as standard. The protocol: The compounds prepared as described in Examples I and II, i.e., TR-4681 and TR-4690, were tested to determine their activity in the relaxation of the human bronchial muscle relative to PGE1. […] If potency as a bronchodilator were the only criterion upon which a drug of this type were judged, TR-4690 would be preferred. […] This screen and the results observed in using it to test TR-4681 and TR-4690 are as follows: […]

Where “and” joins values, the source holds several entries; their conditions need not be identical. Equal entries are not always repeated.

Take `CCCCC[C@H](O)/C=C/[C@H]1[C@H](O)CC(=O)[C@@H]1CCCCCCC(=O)O` [PGE1, prostaglandin E1]: the Cough with tracheobronchial tract (Conc 100.0 µg/ml) is 33 and 31; in the data set on tracheobronchial tract (Conc 500.0 µg/ml), 58 and 63.
As to `CCC1CC(C)([C@H](O)/C=C/[C@H]2[C@H](O)CC(=O)[C@@H]2CCCCCCC(=O)OC)C1` (stereo partly drawn) [TR-4681, Methyl 11α,15R-dihydroxy-16,18-methano-16-methyl-9-oxoprost-13E-en-l-oate], in the data set with tracheobronchial tract (compared with TR-4690), the “times less potent an irritant to the tracheobronchial tract than TR-4690” value is “twenty-five times less potent”. Moreover, the “times less potent an irritant than PGE1” value with tracheobronchial tract was “approximately 50 times”. Also, the “%ΔRR = percent change in respiratory rate” value in the data set on tracheobronchial tract (Conc 1.0 µg/ml) is 0%; in the data set on tracheobronchial tract (Conc 10.0 µg/ml), “+3%”; in the data set on tracheobronchial tract (Conc 50.0 µg/ml), “+41%”; with tracheobronchial tract (Conc 100.0 µg/ml) it was “+41%”; in the data set on tracheobronchial tract (Conc 500.0 µg/ml), “+67%”. Moreover, the Cough with tracheobronchial tract (Conc 1.0 µg/ml) worked out at 0; in the data set on tracheobronchial tract (Conc 10.0 µg/ml) it was 0; in the data set with tracheobronchial tract (Conc 50.0 µg/ml), 16; with tracheobronchial tract (Conc 100.0 µg/ml) it was 11; with tracheobronchial tract (Conc 500.0 µg/ml), 14. In addition, the “relative potency to PGE1” value with human bronchial muscle came to 1.33.
Turning to `COC(=O)CCCCCC[C@H]1C(=O)C[C@@H](O)[C@@H]1/C=C/[C@@H](O)C1(C)CCC1` [TR-4690, Methyl 16,19-cyclo-11α,15R-dihydroxy-16-methyl-20-nor-9-oxoprost-13E-en-l-oate], the “times more potent an irritant than TR-4681” value in the data set with tracheobronchial tract (compared with TR-4681) is on record as “approximately 25 times”. Also, in the data set with tracheobronchial tract, the “times less potent an irritant than PGE1” value is on record as “approximately 2 times”. Further, the “%ΔRR = percent change in respiratory rate” value was “+5%” in the data set with tracheobronchial tract (Conc 1.0 µg/ml); “+11%” with tracheobronchial tract (Conc 10.0 µg/ml); “+26%” in the data set with tracheobronchial tract (Conc 50.0 µg/ml); “+21%” with tracheobronchial tract (Conc 100.0 µg/ml); “+39%” in the data set with tracheobronchial tract (Conc 500.0 µg/ml). The Cough came to 6 with tracheobronchial tract (Conc 1.0 µg/ml); 5 in the data set on tracheobronchial tract (Conc 10.0 µg/ml); 15 with tracheobronchial tract (Conc 50.0 µg/ml); 1 with tracheobronchial tract (Conc 100.0 µg/ml); 33 with tracheobronchial tract (Conc 500.0 µg/ml). For the same compound, the “relative potency to PGE1” value in the data set on human bronchial muscle came to 3.9. The “times more potent than TR-4681 as a bronchodilator” value with human bronchial muscle (relaxing human bronchial muscle, compared with TR-4681) is “approximately 3 times”.
